# Assay results: PMC11984586, “A novel spider toxin as a selective antagonist of the Kv1 subfamily of voltage-gated potassium channels through gating modulation” (The Journal of Biological Chemistry, 2025)
# Like-named read-outs stand apart in the source and are kept apart here. Bridge positions count the residues as written; N and C are the ends. Peptide text beside a SMILES is read from it.
# Columns and labels:
# [1] = biological target: T1, rKv1.4 (Rattus norvegicus, UniProt P15385); assay: Whole-cell patch clamp, Kv1.4 ionic current in CHO-K1 cells; format: cell-based
# T1 construct: expressed in transfected cells; host or cells: CHO-K1
# T1 sequence (P15385 whole entry): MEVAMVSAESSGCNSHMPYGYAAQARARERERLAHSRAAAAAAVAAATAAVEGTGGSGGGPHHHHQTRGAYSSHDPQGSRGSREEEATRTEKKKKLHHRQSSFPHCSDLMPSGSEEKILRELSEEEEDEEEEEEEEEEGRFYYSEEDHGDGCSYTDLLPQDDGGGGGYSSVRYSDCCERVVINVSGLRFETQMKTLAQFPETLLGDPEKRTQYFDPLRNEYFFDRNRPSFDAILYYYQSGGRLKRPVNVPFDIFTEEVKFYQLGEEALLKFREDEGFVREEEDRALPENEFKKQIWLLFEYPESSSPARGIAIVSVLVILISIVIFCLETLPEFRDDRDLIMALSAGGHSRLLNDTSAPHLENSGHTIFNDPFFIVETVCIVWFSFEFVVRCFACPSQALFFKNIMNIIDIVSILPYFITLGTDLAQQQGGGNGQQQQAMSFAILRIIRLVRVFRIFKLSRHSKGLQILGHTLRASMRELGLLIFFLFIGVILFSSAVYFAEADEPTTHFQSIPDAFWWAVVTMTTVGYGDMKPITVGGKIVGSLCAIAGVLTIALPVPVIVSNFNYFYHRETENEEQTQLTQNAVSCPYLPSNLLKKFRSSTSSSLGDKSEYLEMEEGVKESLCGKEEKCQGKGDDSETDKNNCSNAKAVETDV
# Description: The cDNA of hKv1.1, hKv1.2, hKv1.3, rKv1.4, hKv1.5, mKv1.6, and hKv1.7 were subcloned into mammalian expression vectors pcDNA3.1 or pCMV-blank vectors, as well as other plasmids described previously ([35]). Channel mutants were generated by site-directed mutations. Briefly, the parental channel plasmid was amplified using a pair of oppositely directed primers harboring the designed mutation site, with KOD Fx (TOYOBO Co, Ltd). The resulting PCR mix was treated with FastDigest DpnI (Thermo Fisher Scientific) to remove the methylated template. Ten microliters of the digested product was then used to transform 100 μl E. coli DH5α competent cells. […]
# CHO-K1 cells were selected for expressing Kv channels due to their lack of endogenous Kv channels, while HEK293 or ND7/23 cells were used for Nav and Cav channel expression. […] After 4 to 6 h transfection, cells were seeded onto poly-lysine–coated coverslips, and 24 to 36 h later, transfected cells were ready for patch-clamp analysis. […]
# For Kv current recordings, the bath solution contained (in mM) the following: 140 NaCl, 5 KCl, 1 MgCl2, 2 CaCl2, 10 glucose, and 10 Hepes (pH 7.3, adjusted with NaOH), and the pipette solution contained (in mM) the following: 140 KCl, 2.5 MgCl2, 11 EGTA, and 10 Hepes (pH 7.3, adjusted with KOH). […] The steady-state fast inactivation of Kv1.3 was measured using a two-pulses protocol. […]
# [2] = biological target: T2, Kv1.3/I472C mutant (Kv1.3∗) (Homo sapiens, UniProt P22001, I472C); assay: Gating-current recording, Kv1.3* in HEK293T cells; format: cell-based; settings: mean ± SD; for IC50: held at −100 mV, 50 ms depolarization to +30 mV, HEK293T
# T2 construct: expressed in transfected cells; host or cells: HEK293T
# T2 sequence (P22001 whole entry I472C): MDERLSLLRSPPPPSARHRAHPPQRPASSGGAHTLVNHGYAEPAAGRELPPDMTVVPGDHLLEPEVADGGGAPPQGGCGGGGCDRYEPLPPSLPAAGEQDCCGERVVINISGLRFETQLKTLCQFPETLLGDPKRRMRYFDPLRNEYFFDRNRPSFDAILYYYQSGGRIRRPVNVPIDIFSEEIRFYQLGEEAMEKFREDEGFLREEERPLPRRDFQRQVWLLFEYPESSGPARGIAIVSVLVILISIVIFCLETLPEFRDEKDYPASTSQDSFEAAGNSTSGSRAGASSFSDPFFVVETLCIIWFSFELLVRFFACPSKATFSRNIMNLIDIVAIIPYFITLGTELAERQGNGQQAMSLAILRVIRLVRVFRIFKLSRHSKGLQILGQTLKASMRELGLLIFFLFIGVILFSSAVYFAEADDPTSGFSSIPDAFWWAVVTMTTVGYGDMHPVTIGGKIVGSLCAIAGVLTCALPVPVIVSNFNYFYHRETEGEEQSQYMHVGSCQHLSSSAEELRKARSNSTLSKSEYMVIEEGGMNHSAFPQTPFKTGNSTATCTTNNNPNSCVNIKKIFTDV
# Description: The cDNA of hKv1.1, hKv1.2, hKv1.3, rKv1.4, hKv1.5, mKv1.6, and hKv1.7 were subcloned into mammalian expression vectors pcDNA3.1 or pCMV-blank vectors, as well as other plasmids described previously ([35]). Channel mutants were generated by site-directed mutations. Briefly, the parental channel plasmid was amplified using a pair of oppositely directed primers harboring the designed mutation site, with KOD Fx (TOYOBO Co, Ltd). The resulting PCR mix was treated with FastDigest DpnI (Thermo Fisher Scientific) to remove the methylated template. Ten microliters of the digested product was then used to transform 100 μl E. coli DH5α competent cells. Transformants were randomly picked and sequenced to confirm the presence of the intended mutation.
# CHO-K1 cells were selected for expressing Kv channels due to their lack of endogenous Kv channels, while HEK293 or ND7/23 cells were used for Nav and Cav channel expression. CHO-K1 cells were cultured in a Dulbecco's modified Eagle's medium/Ham's F-12 nutrient mixture (DMEM-F12) medium, and HEK293T and ND7/23 cells in DMEM medium, all supplemented with 10% fetal bovine serum and 1% penicillin-streptomycin (all from Gibco, Thermo Fisher Scientific, Inc) under standard conditions (37 °C, 5% CO2, and saturated humidity). These cell lines were purchased from Stem Cell Bank, Chinese Academy of Sciences. Channel plasmids were cotransfected with pEGFP-N1 (encoding GFP) into the respective cells using lipofectamine 2000, following the manufacturer's instructions (Invitrogen, Thermo Fisher Scientific, Inc.). […] After 4 to 6 h transfection, cells were seeded onto poly-lysine–coated coverslips, and 24 to 36 h later, transfected cells were ready for patch-clamp analysis. […]
# Gating currents were recorded by transfecting HEK293T cells with a saturating dose of plasmid to ensure maximal channel expression. […] Gating charge movement (Q) was determined by integrating the area under the IgON and IgOFF traces, representing voltage sensor movement in response to depolarizing pulses. […]
compound,measurement,setting,value
"CC[C@H](C)[C@@H]1NC(=O)[C@H](Cc2ccc(O)cc2)NC(=O)[C@H](CCC(N)=O)NC(=O)[C@@H]2CCCN2C(=O)[C@@H]2CSSC[C@H](NC(=O)[C@H](C)NC(=O)[C@H](CO)NC(=O)[C@H](CCC(=O)O)NC(=O)[C@H](CCC(=O)O)NC(=O)[C@@H](N)[C@@H](C)O)C(=O)NCC(=O)NCC(=O)N[C@@H](Cc3ccccc3)C(=O)N[C@@H](CC(N)=O)C(=O)N[C@@H](C)C(=O)N[C@@H](CCCNC(=N)N)C(=O)N[C@H]3CSSC[C@H](NC1=O)C(=O)N[C@@H](CCCCN)C(=O)NCC(=O)N[C@@H](Cc1c[nH]c4ccccc14)C(=O)N[C@@H](CCCNC(=N)N)C(=O)N[C@@H]([C@@H](C)O)C(=O)N[C@@H](CCCCN)C(=O)N[C@@H](CCCNC(=N)N)C(=O)N[C@H](C(=O)N[C@@H](CC(C)C)C(=O)N[C@@H](CC(N)=O)C(=O)N1CCC[C@H]1C(=O)O)CSSC[C@H](NC(=O)[C@H](CCCCN)NC(=O)[C@H](Cc1c[nH]cn1)NC(=O)[C@H](CC(C)C)NC(=O)[C@@H]1CCCN1C3=O)C(=O)N2 [MrVIII] (H-TEESACGGFNARCPLHKCCPQYICKGWRTKRCLNP-OH; disulfide 6-19, 13-24, 18-32; N-terminus and C-terminus assumed)",IC50,"[1]; current measured at 50 ms of a 500 ms depolarization to +30 mV, mean ± SD, n = 4–7, SD",62.7 ± 56.9 nM
same,enhancement of the 495 ms current of Kv1.4,"[1]; in the presence of MrVIII (10 μM saturating), +30 mV, 495 ms",3.9 fold
same,Va of Q-V relationship of Kv1.3∗ after toxin,"[2]; 5 nM MrVIII, before toxin −30.1 ± 7.1 mV, n = 5",−27.4 ± 10.3 mV
same,IC50,"[2]; n = 8, read-out: IC50, inhibition of IgOFF gating current of Kv1.3∗",7 ± 4.2 nM
same,IC50,"[2]; n = 8, read-out: IC50, inhibition of IgON gating current of Kv1.3∗",5 ± 3.4 nM
